Measurements published in patent US7034208B1, “Ahas inhibiting herbicide resistant wheat and method for selection thereof” (BASF Aktiengellschaft, priority 1991, dated 2006).

Experiments:
[1] = tested on: wheat selections FS2 and FS4 and Fidel; assay: Postemergence Herbicide Tolerance, upper limits; type: in vivo; settings: four weeks after treatment
Excerpt: In this second greenhouse test, the upper limits of the mutant selections' resistance to postemergent applications of PURSUIT™ and Compound 2 are examined. M4 seed of two of the mutant selections, FS2 and FS4, and seed of Fidel are used in this experiment. Five seeds from each line are planted per pot in sterile Metro Mix 350™ in six inch Azalea pots. Immediately prior to herbicide treatment, these plants are thinned to three plants per pot. Three replicates are used per treatment (chemical & rate) for each line, and six replicates per wheat line are used as untreated controls. The plants are sprayed postemergence, 10 days after planting, with the following herbicides and rates (g/ha):
The herbicides are applied as previously described. Plant height is measured immediately prior to spraying. Plant heights are also measured at two and four weeks after treatment, and shoot fresh weights measured at seven weeks after treatment.

[2] = tested on: AHAS (acetohydroxyacid synthase); assay: AHAS enzyme assay, Initial Assay (M3 Plants); type: biochemical, wheat
Experimental: Herbicide Application: M3 plants from the four initial mutant plants (FS1, FS2, FS3 and FS4), are tested for metabolic AHAS (acetohydroxyacid synthase) activity. […] When these plants are three weeks old, two plants of each mutant selection, FS1-FS4, receive a second application of PURSUIT™ at 62.5 g/ha while two of each selection are left unsprayed. Sprayed and unsprayed susceptible Fidel plants are also included in this experiment. […] Compound 9 is 2-acetamido-2,3-dimethyl-N-(p-tolylsulfonyl)butyramide, and is described in U.S. Pat. No. 4,883,914.
Enzyme Extraction: For the extraction of AHAS, 10 grams of tissue are powdered in liquid nitrogen and then homogenized in 100 mM potassium phosphate buffer (pH 7.5) containing 10 mM pyruvate, 5 mM MgCl2, 5 uM EDTA, 100 uM FAD, 1 mM valine, 1 mM leucine, 10% glycerol, and 10 mM cysteine. The homogenate is filtered through a nylon cloth (53 uM mesh) and centrifuged at 25,000 g for 20 minutes. […]
AHAS Assay: AHAS activity is measured by estimation of the product, acetolactate, after conversion by decarboxylation in the presence of acid to acetoin. […] The acetoin formed is determined by incubating with creatine (0.17%) and 1-napthol (1.7% in 4N NaOH) by the method of Westerfield (Westerfield, W. W., J. Biol. Chem., 161, 495-502 (1945)). […] The absorption of color complex is measured at 520 nm. […]

Structure (SMILES): CCc1cnc(C2=NC(C)(C(C)C)C(=O)N2)c(C(=O)O)c1 (stereo not drawn) [PURSUIT, 5-ethyl-2-(4-isopropyl-4-methyl-5-oxo-2-imidazolin-2-yl)-nicotinic acid]
- rates up to which FS2 and FS4 plant heights equal the untreated controls [1]: 500-1000 g/ha
- resistance of AHAS to inhibition ([2]; FS1-FS4 M3 plants sprayed with 62.5 g/ha PURSUIT, compared to sprayed wild type): dramatic increase in the AHAS resistance
- resistance of AHAS to inhibition ([2]; resistant wheat lines, unsprayed M3 plants): weak resistance
